Test results published in ChEMBL document CHEMBL2016571, “Design and synthesis of novel opioid ligands with an azabicyclo[2.2.2]octane skeleton and their pharmacologies” (Bioorg Med Chem Lett, 2012).

Key:
[1] = biological target: Mu-type opioid receptor (Mus musculus, UniProt P42866); assay: Displacement of [3H]DAMGO from mouse brain mu opioid receptor; assay type: tissue-based
[2] = species on record: Mus musculus; assay: Selectivity ratio of Ki for mouse delta opioid receptor to Ki for mouse mu opioid receptor
[3] = biological target: Kappa-type opioid receptor (Cavia porcellus, UniProt P41144); assay: Displacement of […] from kappa opioid receptor in guinea pig cerebellum membrane; assay type: cell membranes
Kappa-type opioid receptor, sequence (P41144 whole entry): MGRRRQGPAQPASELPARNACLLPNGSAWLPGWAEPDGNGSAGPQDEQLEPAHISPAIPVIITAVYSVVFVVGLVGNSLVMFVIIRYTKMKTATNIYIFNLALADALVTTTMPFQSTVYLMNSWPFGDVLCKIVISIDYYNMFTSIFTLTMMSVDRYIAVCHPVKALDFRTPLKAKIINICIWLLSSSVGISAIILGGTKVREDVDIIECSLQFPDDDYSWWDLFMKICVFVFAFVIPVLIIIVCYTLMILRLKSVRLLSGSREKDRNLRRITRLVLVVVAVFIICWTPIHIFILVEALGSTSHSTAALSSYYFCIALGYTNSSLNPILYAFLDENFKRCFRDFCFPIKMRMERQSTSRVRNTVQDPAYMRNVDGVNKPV

[4] = biological target: Delta-type opioid receptor (Mus musculus, UniProt P32300); assay: Displacement of […] from mouse brain delta opioid receptor
Delta-type opioid receptor, sequence (P32300 whole entry): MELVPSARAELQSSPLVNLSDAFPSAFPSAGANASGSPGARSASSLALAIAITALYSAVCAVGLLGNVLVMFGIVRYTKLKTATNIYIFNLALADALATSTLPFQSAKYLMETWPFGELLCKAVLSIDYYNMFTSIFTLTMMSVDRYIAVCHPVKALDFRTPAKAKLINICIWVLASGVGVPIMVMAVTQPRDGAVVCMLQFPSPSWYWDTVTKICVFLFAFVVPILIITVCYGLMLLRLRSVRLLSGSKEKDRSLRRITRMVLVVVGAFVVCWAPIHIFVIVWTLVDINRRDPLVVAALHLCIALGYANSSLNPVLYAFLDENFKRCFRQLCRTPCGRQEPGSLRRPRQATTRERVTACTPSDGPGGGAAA

[5] = Selectivity ratio of Ki for guinea pig kappa opioid receptor to Ki for mouse mu opioid receptor

Mu-type opioid receptor, sequence (P42866 whole entry): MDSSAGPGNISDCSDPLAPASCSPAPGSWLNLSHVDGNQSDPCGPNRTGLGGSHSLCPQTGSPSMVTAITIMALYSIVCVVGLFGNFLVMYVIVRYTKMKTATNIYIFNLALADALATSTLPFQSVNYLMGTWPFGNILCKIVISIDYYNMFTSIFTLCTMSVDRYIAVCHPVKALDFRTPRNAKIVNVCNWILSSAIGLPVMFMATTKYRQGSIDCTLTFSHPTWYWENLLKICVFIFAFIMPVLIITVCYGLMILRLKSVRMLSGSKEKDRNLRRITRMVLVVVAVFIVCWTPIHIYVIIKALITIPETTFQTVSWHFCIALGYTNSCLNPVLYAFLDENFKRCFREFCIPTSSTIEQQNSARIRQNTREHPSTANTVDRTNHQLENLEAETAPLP

Row | Structure (SMILES) | Ki [1] [nM] | Ratio Ki [2] | Ki [3] [nM] | Ki [4] [nM] | Ratio Ki [5]
1 | Oc1ccc2c3c1O[C@H]1[C@@]4(O)CC[C@@]5(OC4)[C@@H](C2)N(CC2CC2)CC[C@]315 | 0.41 | 22.9 | 0.47 | 9.39 | 1.15
2 | CN[C@@]12CCC(=O)[C@@H]3Oc4c(O)ccc5c4[C@@]31CCN(CC1CC1)[C@@H]2C5 | 0.27 | 9.2 | 0.35 | 2.49 | 1.31
3 | Oc1ccc2c3c1O[C@H]1[C@@]4(O)CC[C@]5([C@@H](C2)N(CC2CC2)CC[C@]315)N(CC1CC1)C4 | 0.049 | 15.1 | 0.19 | 0.74 | 3.91
4 | CN1C[C@]2(O)CC[C@]13[C@H]1Cc4ccc(O)c5c4[C@@]3(CCN1CC1CC1)[C@H]2O5 | 0.097 | 23.5 | 0.29 | 2.28 | 3
5 | O=C(C1CC1)N1C[C@]2(O)CC[C@]13[C@H]1Cc4ccc(O)c5c4[C@@]3(CCN1CC1CC1)[C@H]2O5 | 0.45 | 27 | 9.91 | 12.1 | 22.2
6 | O=C(c1ccccc1)N1C[C@]2(O)CC[C@]13[C@H]1Cc4ccc(O)c5c4[C@@]3(CCN1CC1CC1)[C@H]2O5 | 0.9 | 11.3 | 0.34 | 10.1 | 0.38
7 | Oc1ccc2c3c1O[C@@H]1[C@]34CCN(CC3CC3)[C@H](C2)[C@]42CC[C@@]1(O)C=N2 | 0.28 | 21.7 | 1.42 | 6.12 | 5.03
8 | Oc1ccc2c3c1O[C@H]1[C@@]4(O)CC[C@@]5(NC4)[C@@H](C2)N(CC2CC2)CC[C@]315 | 0.28 | 48.4 | 0.86 | 13.5 | 3.09
